Earlier results as cited in US20110245352A1, “Composition For Permeabilizing The Walls Of Microorganisms Comprising The Combination Of Ethylenediaminetetraacetic Acid (EDTA) And Polyethyleneimine (PEI)” (Millipore Corporation, priority 2007, published 2011).

System: gram-positive bacteria
Conditions: EDTA taken alone; in particular gram-positive bacteria

O=C(O)CN(CCN(CC(=O)O)CC(=O)O)CC(=O)O [EDTA, Ethylenediaminetetraacetic acid]
Permeabilization of microorganism walls for labeling of nucleic acids: does not allow satisfactory permeabilization
